Measurements from ChEMBL document CHEMBL1201862, “PubChem BioAssay data set” (2004).
Values belong to the compound of their own block, whether it stands above or below them. The source made the active and inactive calls.

Experiments:
Bcl-2-related protein A1 [1] = biological target: T1, Bcl-2-related protein A1 (Mus musculus, UniProt Q07440); test: Bfl-1 binding inhibitors, SAR follow-up, biochemical, fluorescence polarization (AID 1070)
T1 sequence (Q07440 whole entry): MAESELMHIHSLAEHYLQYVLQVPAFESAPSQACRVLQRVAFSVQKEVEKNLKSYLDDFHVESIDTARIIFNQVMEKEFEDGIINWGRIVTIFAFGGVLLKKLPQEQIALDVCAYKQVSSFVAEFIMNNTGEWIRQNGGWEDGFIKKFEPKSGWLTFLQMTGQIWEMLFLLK

[2] = biological target: Glyceraldehyde-3-phosphate dehydrogenase (Homo sapiens, UniProt P04406)
Bcl-2-related protein A1 [3] = biological target: T1, Bcl-2-related protein A1; test: Bfl-1 inhibitors blocking BH3 peptide binding, confirmation, biochemical, TR-FRET, mouse Bfl-1 (AID 621);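 also: TR-FRET binding of GST-Bfl-1 to FITC-labelled Bid peptide via terbium antibody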
Tumor necrosis factor = Tumor necrosis factor (Homo sapiens, UniProt P01375); test: TNFa-triggered NF-kB activation inhibitors, SAR follow-up, cell-based, set 3 (AID 2801); type: functional
[4] = biological target: T2, Nucleotide-binding oligomerization domain-containing protein 1 (Homo sapiens, UniProt Q9Y239); test: SAR analysis of compounds that inhibit NOD1 - Set 3. [Related pubchem assays (depositor defined):AID1566, AID1575, AID1578, AID1849, AID1852, AID2333, AID2335, AID2466]; type: functional
T2 sequence (Q9Y239 whole entry): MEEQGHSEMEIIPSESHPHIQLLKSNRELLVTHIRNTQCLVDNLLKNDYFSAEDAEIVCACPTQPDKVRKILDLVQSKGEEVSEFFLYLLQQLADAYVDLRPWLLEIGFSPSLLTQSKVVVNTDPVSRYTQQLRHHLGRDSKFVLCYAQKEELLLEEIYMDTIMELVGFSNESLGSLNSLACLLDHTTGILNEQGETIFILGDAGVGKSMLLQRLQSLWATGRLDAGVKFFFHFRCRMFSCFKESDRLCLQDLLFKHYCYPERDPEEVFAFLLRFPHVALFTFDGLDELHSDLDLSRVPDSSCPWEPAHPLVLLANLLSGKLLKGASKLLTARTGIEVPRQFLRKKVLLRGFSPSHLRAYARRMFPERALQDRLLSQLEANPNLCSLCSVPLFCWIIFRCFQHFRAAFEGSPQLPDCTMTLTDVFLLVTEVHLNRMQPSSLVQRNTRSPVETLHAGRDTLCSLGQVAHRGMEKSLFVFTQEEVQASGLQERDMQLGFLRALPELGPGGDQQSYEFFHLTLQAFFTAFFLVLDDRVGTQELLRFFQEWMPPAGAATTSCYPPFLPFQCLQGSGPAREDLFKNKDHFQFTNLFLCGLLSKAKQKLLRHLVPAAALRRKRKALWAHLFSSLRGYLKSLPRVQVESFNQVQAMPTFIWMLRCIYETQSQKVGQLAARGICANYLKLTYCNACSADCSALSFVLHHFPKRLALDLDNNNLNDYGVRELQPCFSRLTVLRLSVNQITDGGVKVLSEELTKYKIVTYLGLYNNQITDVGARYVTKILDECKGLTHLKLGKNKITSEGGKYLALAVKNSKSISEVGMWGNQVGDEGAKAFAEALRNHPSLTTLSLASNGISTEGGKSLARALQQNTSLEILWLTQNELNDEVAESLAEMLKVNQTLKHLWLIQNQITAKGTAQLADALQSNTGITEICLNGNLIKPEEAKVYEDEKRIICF

HEK293 = test: SAR analysis of compounds that are cytotoxic to HEK293 - Set 3. [Related pubchem assays (depositor defined):AID1575, AID1578, AID1848, AID1849, AID2001, AID2333, AID2334, AID2335, AID2337, AID2469]; type: functional, cell-based; details: Homo sapiens
[5] = biological target: Nucleotide-binding oligomerization domain-containing protein 2 (Homo sapiens, UniProt Q9HC29); test: NOD2 signaling inhibitors, analog potency, SAR follow-up, cell-based, set 3 (AID 2799); type: functional
[6] = biological target: Nuclear receptor ROR-gamma (Homo sapiens, UniProt P51449); test: ROR modulator nuclear receptor reporter panel, late-stage follow-up, ROR modulator project, cell-based, luciferase reporter, panel member RORG (AID 2117)
[7] = biological target: Nuclear receptor ROR-alpha (Homo sapiens, UniProt P35398); test: ROR modulator nuclear receptor reporter panel, late-stage follow-up, ROR modulator project, cell-based, luciferase reporter, panel member RORA (AID 2117)
[8] = NIH-3T3 fibroblast cytotoxicity, dose response, cytotoxicity control, cell-based, fluorescence, Alamar Blue, secondary assay (AID 2327); type: functional;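 also: NIH-3T3 mouse fibroblasts cultured with fluconazole at 8 µg/mL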
[9] = biological target: T3, High affinity choline transporter 1 (Homo sapiens, UniProt Q9GZV3); test: CHT inhibitors, dose response, cell-based, 5-point CRC, membrane potential dye (AID 504840); type: functional
T3 sequence (Q9GZV3 whole entry): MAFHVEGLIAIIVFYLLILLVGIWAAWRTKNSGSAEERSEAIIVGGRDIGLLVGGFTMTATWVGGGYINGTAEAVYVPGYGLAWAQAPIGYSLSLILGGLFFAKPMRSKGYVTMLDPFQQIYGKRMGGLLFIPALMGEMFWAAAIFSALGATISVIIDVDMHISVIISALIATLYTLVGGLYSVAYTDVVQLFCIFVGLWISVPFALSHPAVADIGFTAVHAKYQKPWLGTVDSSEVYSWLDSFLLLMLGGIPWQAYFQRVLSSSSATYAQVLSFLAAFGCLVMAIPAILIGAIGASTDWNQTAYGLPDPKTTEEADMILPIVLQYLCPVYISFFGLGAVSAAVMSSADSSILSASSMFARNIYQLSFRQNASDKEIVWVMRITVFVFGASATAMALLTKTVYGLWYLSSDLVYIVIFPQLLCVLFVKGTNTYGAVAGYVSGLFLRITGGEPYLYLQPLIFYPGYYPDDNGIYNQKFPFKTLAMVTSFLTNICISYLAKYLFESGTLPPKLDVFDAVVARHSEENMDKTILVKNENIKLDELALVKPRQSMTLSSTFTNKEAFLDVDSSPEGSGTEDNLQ

[10] = Counterscreen for AddAB inhibitors: absorbance-based bacterial cell-based high throughput dose response assay for inhibitors of bacterial viability. [Related pubchem assays (depositor defined):AID435030, AID449728, AID449731, AID488942, AID488955, AID488956]; type: functional
[11] = NIH-3T3 fibroblast cytotoxicity, dose response, cytotoxicity control for antifungal single agent project, cell-based, Alamar Blue, dry powder (AID 602188); type: functional
[12] = C. albicans growth with fluconazole, confirmation, fluorescence, retest (AID 2467); type: functional, cell-based
[13] = biological target: T4, Serine/threonine-protein phosphatase (Candida dubliniensis (strain CD36 / CBS 7987 / NCPF 3949 / NRRLY-17841) (Yeast), UniProt B9W6M3); test: calcineurin pathway inhibitors in yeast reporter, dose response, S. cerevisiae, CDRE-lacZ, luminescence, secondary (AID 2388); type: functional, cell-based;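 also: yeast reporter cells carrying a calcineurin-responsive lacZ construct stimulated with calcium chloride; luminescent beta-galactosidase reporter signal in whole cells rather than isolated phosphatase activity; potency for inhibition where a drop in reporter signal means calcineurin blockade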
T4 sequence (B9W6M3 whole entry): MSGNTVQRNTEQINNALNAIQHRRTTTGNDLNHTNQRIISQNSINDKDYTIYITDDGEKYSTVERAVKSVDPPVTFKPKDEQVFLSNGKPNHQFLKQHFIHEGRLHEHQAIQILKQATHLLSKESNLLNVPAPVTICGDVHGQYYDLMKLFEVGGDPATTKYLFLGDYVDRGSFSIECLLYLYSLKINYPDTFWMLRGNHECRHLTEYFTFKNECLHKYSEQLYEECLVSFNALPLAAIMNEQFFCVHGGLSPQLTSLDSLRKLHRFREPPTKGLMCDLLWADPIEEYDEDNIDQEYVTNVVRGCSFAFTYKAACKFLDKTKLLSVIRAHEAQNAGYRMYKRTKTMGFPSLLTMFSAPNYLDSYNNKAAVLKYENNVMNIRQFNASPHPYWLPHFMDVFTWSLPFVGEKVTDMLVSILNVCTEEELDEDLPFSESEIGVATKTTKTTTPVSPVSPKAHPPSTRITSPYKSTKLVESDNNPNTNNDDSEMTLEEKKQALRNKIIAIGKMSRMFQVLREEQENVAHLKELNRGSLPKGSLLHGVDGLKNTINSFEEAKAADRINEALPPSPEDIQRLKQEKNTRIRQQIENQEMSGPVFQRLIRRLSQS

Exodeoxyribonuclease V = Exodeoxyribonuclease V (Escherichia coli (strain K12), UniProt P04993+P07648+P08394); test: E. coli RecBCD inhibitors, dose response, counter-screen for AddAB inhibitor project, absorbance, V66 E. coli, mutant T4 phage (AID 492957); type: functional, cell-based, Escherichia coli str. K-12 substr. MG1655
Streptococcus = test: Group A Streptococcus viability loss, dose response, counter-screen for streptokinase expression inhibitor project, luminescence, BacTiterGlo (AID 1915); type: functional, organism-based;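 also: potency for reduction of bacterial viability or growth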
[14] = biological target: ATP-dependent molecular chaperone HSP82 (Candida albicans (strain WO-1) (Yeast), UniProt C4YTQ8); test: loss of DOC-induced GRE-beta-galactosidase reporter signal, dose response, Hsp90 inhibitor project, S. cerevisiae, luminescence (AID 2400); type: functional, cell-based;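 also: beta-galactosidase luminescence from glucocorticoid response element reporter as proxy for Hsp90 function; inhibitor potency where signal loss means Hsp90 inhibition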
[15] = test system: Streptococcus sp. 'group A'; test: growth inhibition of control SK(-) GAS strain, dose response, counter-screen for streptokinase expression inhibitor project, luminescence, kanamycin, BacTiterGlo, confirmation (AID 1900); type: functional, organism-based

Sequence of ATP-dependent molecular chaperone HSP82 (C4YTQ8 whole entry): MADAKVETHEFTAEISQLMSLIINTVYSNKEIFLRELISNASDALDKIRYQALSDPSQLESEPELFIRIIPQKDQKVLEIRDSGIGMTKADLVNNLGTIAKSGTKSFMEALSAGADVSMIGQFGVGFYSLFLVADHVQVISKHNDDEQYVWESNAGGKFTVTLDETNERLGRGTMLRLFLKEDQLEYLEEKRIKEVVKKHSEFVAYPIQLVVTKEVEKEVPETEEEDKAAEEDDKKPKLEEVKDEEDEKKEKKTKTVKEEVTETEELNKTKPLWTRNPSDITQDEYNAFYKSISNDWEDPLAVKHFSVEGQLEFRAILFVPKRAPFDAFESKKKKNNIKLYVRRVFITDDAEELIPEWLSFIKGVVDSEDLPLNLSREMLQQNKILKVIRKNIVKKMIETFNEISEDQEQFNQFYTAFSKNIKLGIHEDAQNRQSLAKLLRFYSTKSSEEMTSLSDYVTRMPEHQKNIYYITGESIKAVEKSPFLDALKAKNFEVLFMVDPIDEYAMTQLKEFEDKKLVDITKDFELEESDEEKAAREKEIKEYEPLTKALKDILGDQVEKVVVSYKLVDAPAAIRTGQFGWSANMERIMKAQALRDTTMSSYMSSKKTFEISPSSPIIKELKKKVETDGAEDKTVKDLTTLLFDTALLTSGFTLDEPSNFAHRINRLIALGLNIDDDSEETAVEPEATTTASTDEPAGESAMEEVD
Sequence of Exodeoxyribonuclease V (P04993 whole entry): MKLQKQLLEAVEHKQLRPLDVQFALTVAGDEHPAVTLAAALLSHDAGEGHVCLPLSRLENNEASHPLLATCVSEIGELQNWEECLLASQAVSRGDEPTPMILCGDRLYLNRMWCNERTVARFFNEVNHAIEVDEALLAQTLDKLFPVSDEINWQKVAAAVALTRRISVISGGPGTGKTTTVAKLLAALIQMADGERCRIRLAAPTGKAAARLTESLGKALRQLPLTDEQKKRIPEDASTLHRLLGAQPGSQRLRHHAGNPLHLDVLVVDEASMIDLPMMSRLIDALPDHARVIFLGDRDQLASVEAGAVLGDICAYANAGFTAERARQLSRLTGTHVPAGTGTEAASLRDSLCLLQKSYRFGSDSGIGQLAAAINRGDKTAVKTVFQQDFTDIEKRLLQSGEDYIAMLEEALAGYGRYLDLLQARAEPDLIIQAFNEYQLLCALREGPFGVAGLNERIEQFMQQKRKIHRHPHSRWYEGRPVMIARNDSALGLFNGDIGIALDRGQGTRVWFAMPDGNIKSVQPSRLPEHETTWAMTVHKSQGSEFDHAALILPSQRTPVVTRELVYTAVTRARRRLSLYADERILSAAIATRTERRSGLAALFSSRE
Sequence of Exodeoxyribonuclease V (P07648 whole entry): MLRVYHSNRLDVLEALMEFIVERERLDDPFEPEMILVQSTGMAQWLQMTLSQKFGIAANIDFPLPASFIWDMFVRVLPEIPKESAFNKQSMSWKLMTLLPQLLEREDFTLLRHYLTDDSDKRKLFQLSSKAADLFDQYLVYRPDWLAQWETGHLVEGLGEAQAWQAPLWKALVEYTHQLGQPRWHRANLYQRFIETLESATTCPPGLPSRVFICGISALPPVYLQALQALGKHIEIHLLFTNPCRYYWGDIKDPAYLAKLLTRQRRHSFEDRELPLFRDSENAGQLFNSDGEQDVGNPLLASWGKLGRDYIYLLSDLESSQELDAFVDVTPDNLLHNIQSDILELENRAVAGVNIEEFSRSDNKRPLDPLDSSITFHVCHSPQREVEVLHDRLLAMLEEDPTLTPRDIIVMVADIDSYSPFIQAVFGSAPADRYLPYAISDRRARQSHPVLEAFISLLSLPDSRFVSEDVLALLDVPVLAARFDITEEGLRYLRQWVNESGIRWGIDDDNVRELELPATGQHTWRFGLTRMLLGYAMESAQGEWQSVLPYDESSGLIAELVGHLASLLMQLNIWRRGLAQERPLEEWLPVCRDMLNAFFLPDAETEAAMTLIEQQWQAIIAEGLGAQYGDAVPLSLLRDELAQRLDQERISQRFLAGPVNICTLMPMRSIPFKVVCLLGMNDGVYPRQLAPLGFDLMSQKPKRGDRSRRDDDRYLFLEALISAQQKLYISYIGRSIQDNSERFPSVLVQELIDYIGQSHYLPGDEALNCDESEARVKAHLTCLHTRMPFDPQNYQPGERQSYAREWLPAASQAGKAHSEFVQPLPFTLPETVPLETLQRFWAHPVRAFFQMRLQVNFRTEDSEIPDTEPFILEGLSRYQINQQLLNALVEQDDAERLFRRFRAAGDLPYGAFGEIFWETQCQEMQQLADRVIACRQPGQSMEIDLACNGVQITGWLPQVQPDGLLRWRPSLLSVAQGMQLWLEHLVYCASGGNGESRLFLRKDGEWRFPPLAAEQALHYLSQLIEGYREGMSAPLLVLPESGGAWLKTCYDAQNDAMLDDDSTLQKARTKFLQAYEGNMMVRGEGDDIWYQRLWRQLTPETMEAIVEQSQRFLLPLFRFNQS
Sequence of Exodeoxyribonuclease V (P08394 whole entry): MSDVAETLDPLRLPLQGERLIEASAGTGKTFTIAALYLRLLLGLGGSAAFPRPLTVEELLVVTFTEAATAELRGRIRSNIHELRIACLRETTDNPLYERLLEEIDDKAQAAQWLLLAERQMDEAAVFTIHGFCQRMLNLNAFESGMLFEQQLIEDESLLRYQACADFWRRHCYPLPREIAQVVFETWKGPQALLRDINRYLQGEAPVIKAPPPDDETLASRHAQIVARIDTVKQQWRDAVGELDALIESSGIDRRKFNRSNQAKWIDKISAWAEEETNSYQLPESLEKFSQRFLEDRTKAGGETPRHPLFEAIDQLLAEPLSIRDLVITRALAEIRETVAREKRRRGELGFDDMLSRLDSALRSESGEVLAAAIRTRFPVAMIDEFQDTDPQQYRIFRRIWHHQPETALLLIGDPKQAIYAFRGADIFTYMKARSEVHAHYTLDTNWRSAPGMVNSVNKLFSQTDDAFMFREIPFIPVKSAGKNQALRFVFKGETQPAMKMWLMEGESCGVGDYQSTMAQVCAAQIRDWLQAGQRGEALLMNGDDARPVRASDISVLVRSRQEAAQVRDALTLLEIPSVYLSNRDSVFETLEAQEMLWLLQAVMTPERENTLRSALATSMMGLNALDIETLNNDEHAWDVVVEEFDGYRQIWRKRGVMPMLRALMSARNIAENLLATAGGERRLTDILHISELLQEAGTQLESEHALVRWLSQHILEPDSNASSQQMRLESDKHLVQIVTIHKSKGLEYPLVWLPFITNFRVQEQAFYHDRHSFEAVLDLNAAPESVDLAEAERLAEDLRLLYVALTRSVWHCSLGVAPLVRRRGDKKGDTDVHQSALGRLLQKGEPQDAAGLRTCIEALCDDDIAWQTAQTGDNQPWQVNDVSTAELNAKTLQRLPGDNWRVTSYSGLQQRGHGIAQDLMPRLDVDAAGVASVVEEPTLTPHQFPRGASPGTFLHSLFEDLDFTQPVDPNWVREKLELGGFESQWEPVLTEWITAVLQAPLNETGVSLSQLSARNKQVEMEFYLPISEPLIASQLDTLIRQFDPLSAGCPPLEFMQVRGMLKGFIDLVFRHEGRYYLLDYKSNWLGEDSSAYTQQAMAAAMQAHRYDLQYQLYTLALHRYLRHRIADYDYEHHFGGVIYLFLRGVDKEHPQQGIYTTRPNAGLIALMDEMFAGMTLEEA
Sequence of Nucleotide-binding oligomerization domain-containing protein 2 (Q9HC29 whole entry, the tested form may be a part): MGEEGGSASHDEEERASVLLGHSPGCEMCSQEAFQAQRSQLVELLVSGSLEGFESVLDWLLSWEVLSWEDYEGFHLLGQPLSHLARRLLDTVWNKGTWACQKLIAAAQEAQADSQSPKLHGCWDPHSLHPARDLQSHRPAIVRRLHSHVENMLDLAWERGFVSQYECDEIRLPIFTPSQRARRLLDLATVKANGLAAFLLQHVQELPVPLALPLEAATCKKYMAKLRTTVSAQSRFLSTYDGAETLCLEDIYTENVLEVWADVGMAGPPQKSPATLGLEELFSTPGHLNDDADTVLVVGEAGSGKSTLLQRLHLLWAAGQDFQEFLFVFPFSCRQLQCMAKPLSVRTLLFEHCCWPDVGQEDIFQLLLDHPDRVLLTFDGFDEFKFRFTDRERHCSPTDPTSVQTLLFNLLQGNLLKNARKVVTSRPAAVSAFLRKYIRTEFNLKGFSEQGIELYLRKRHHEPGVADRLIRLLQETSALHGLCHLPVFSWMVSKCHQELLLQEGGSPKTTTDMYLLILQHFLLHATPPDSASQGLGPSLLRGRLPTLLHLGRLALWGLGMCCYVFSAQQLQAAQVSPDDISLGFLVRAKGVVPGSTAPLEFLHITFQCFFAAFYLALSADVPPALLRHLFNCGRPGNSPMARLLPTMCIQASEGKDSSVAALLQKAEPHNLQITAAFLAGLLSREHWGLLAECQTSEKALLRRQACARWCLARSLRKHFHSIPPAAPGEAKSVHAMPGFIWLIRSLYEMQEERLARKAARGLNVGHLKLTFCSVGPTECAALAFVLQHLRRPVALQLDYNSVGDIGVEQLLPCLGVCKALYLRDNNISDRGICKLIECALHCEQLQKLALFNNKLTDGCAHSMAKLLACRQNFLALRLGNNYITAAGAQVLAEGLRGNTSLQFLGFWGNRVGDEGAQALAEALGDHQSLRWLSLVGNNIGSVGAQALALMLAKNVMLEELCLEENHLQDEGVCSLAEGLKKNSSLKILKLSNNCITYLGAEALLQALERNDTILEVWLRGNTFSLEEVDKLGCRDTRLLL
Sequence of Tumor necrosis factor (P01375 whole entry, the tested form may be a part): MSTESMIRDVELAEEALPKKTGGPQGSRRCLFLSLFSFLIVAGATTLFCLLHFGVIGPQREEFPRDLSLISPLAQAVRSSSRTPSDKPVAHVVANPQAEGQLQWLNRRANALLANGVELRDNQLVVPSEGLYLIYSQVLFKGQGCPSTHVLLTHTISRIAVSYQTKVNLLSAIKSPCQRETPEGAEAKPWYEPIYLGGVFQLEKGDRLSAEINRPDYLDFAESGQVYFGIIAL

SMILES: Nc1cc(-c2ccccc2)nn1S(=O)(=O)c1c(F)c(F)c(F)c(F)c1F
IC50 (Bcl-2-related protein A1 [1]): > 100 µM (not active)
IC50 [2]: > 100 µM (not active)
IC50 (Bcl-2-related protein A1 [3]): 5.83 µM (active)
IC50 (Tumor necrosis factor): > 20 µM (inactive)
IC50 [4]: > 20 µM (inactive)
IC50 (HEK293): > 20 µM (inactive)
IC50 [5]: > 20 µM (inactive)

IC50 [6]: > 20 µM (inactive)
IC50 [7]: > 20 µM (inactive)
SMILES: O=S(=O)(Nc1ccc(C(O)(C(F)(F)F)C(F)(F)F)cc1)c1cccc2cccnc12

SMILES: Cc1ccc(-c2nc3c(Cl)cc(Cl)cc3c(=O)n2O)cc1
EC50 [8]: 31 µM (inconclusive)
IC50 [9]: 15.1 µM (active)
IC50 [10]: > 119 µM (inactive)
AC50 [11]: 16.2 µM (active)
EC50 [12]: 0.891 µM (active)
EC50 [13]: > 180 µM (inactive)
IC50 (Exodeoxyribonuclease V): > 119 µM (inactive)
EC50 (Streptococcus): 2.15 µM (active)
EC50 [14]: 3.24 µM (active)
EC50 [15]: 2.19 µM (active)
